Assay results as given in patent publication US10517849B2, “LSD1 inhibitors and medical uses thereof” (Constellation Pharmaceuticals, Inc., priority 2016, dated 2019).
Structures can show the parent of a compound that is named as a salt.

What was measured:
[1] = tested on: LY-96 mRNA induction in MV4-11 cells; assay: LSD1 LY96 Quantigene Assay; type: cell-based; details: Homo sapiens, 16 h, Quantigene 2.0
Method: MV4-11 cells were cultured at a density of 4×10^4 cells per well in a 96-well plates and treated with various doses inhibitor starting from 10 μM up to 0.0005 μM for 16 h. The LY-96 mRNA induction was quantified using the Quantigene 2.0 system (Affymetrix). The cells were lysed with Lysis Mixture containing Proteinase K. The working reagent for capturing the RNA was prepared according to the steps detailed in “Capturing Target RNA from Cultured Cell or Blood Lysates” in the Quantigene handbook. The subsequent hybridization with LY-96 probe, signal amplification and detection steps were performed as described in the manual. The chemiluminescence was read using Envision (PerkinElmer) and Abase (IDBS software) was used to plot the dose response curves and calculate IC50.

Kasumi-1 = Kasumi-1 GI50 Assay; type: cell-based; details: Homo sapiens, 288 h; Kasumi-1 cells, 12 days, Cell Titer-Glo viability
Method: Cells were plated at 5,000 cells per well in 96 well tissue culture dishes containing tool compounds arrayed in a 10-point dose curve, ranging from […] with 4-fold dilutions, and split every fourth day at a fixed ratio to re-establish 5,000 cells/well density for DMSO-treated controls. Cell treatments were carried out for a total of 12 days. At each 4-day split, the viable cell numbers were determined using the Cell Titer-Glo luminescent cell viability assay (Promega, Madison, Wis. USA) using an EnVision® Multilabel Plate Reader (Perkin Elmer, Waltham, Mass. USA). GraphPad Prism 6 (GraphPad Software, Inc., La Jolla, Calif. USA) was used for curve fitting and determination of GI50 values.

LSD1 = LSD1 (Homo sapiens (Human), UniProt O60341); assay: LSD1 TR-FRET Assay; type: biochemical; details: biotinylated H3K4me1 peptide 4 μM, 10 nM LSD1, 40 nM FAD, 50 minutes at room temperature
Method: LSD1 demethylase reactions were carried out in 50 mM HEPES pH 7.4, 100 mM NaCl, 1 mM DTT, 0.01% Tween-20, and 0.1 mg/mL BSA. All enzymatic reactions were performed for 50 minutes at room temperature in a 10-μL volume. Five microliters of 8 μM biotinylated H3K4me1 peptide solution was added to each well of a black 384 well, clear-bottom assay plate containing 80 nL compound (final concentration of 0.8% DMSO and 4 μM substrate). Reactions were initiated by the addition of a mixture containing 20 nM LSD1 and 80 nM FAD (5 μL). LSD1 and FAD final concentrations were 10 and 40 nM, respectively. Enzyme activity was stopped by the addition of 90 μL of high salt buffer consisting of 50 mM HEPES pH 7.4, 500 mM NaCl, 1 mM DTT, 0.01% Tween-20, and 0.1 mg/mL BSA. Ten microliters of the quenched reaction mixtures were transferred to a black 384 well ProxiPlate. Ten microliters of detection mixture was added to the ProxiPlate, Europium-labeled antibody and Streptavidin APC were used at final concentrations of 0.3 nM and 200 nM, respectively (total assay volume of 20 μL). Capture of the product peptide by the anti-H3K4me0 antibody and Streptavidin APC was allowed to proceed for 60 min at room temperature before measuring the TR-FRET signal. Plates were read on a Perkin Elmer EnVision. Percent inhibition was calculated using Max (no inhibitor) and Min (quenched with stop buffer) controls and inhibition curves plotted to determine IC50 values.

CC/C(=C\c1ccccc1)[C@@H]1C[C@H]1NC1CC2(CCN(CCO)CC2)C1 [Compound 11, 2-(2-(((1R,2S)-2-((E)-1-phenylbut-1-en-2-yl)cyclopropyl)amino)-7-azaspiro[3.5]nonan-7-yl)ethanol dihydrochloride]
< 100 nM: EC50 [1] | GI50 (Kasumi-1) | IC50 (LSD1)

CC/C(=C\c1ccccc1)[C@@H]1C[C@H]1NC1CC2(C1)CN(CC(=O)NCCO)C2 [Compound 13, N-(2-hydroxyethyl)-2-(6-(((1R,2S)-2-((E)-1-phenylbut-1-en-2-yl)cyclopropyl)amino)-2-azaspiro[3.3]heptan-2-yl)acetamide bis(2,2,2-trifluoroacetate)]
< 100 nM: EC50 [1] | GI50 (Kasumi-1) | IC50 (LSD1)

CC/C(=C\c1ccccc1)[C@@H]1C[C@H]1NC1CC2(CCN(CCOC)CC2)C1 [Compound 17, 7-(2-methoxyethyl)-N-((1R,2S)-2-((E)-1-phenylbut-1-en-2-yl)cyclopropyl)-7-azaspiro[3.5]nonan-2-amine dihydrochloride]
< 100 nM: EC50 [1] | GI50 (Kasumi-1) | IC50 (LSD1)

CC/C(=C\c1ccccc1)[C@@H]1C[C@H]1NC1CC2(C1)CN(CCC(N)=O)C2 [Compound 22, 3-(6-(((1R,2S)-2-((E)-1-phenylbut-1-en-2-yl)cyclopropyl)amino)-2-azaspiro[3.3]heptan-2-yl)propanamide bis(2,2,2-trifluoroacetate)]
< 100 nM: EC50 [1] | GI50 (Kasumi-1) | IC50 (LSD1)

CC/C(=C\c1ccccc1)[C@@H]1C[C@H]1NC1CC2(CCN(CCS(N)(=O)=O)CC2)C1 [Compound 23, 2-(2-(((1R,2S)-2-((E)-1-phenylbut-1-en-2-yl)cyclopropyl)amino)-7-azaspiro[3.5]nonan-7-yl)ethanesulfonamide dihydrochloride]
< 100 nM: EC50 [1] | GI50 (Kasumi-1) | IC50 (LSD1)

CC/C(=C\c1ccccc1)[C@@H]1C[C@H]1NC1CC2(C1)CN(CCS(N)(=O)=O)C2 [Compound 32]
< 100 nM: EC50 [1] | GI50 (Kasumi-1) | IC50 (LSD1)
